Structures are written as SMILES.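 The compound was tested at five concentrations on cells cultured in 96-well plates, with a 48-hour exposure period. The concentration for full growth arrest is given as TGI.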

Test systems include OVCAR-3 ovarian; CAKI-1 renal; SK-OV-3 ovarian; 786-0 renal; SF-539 CNS; HCT-116 colon; SR leukemia; U251 CNS; HOP-92 NSCLC; COLO 205 colon; NCI-H460 lung; MALME-3M melanoma; MDA-N; OVCAR-4 ovarian; A498 renal; MOLT-4 leukemia.
What all share (experiment): DTP human tumour cell line panel, 48 h

As for `O=c1c2nc3ccccc3c(=O)n2ncn1-c1ccccc1Cl`, the TGI in the experiment with OVCAR-3 ovarian, in the experiment on CAKI-1 renal, in the experiment with SK-OV-3 ovarian, with 786-0 renal, with SF-539 CNS and in the experiment with HCT-116 colon was above 100 µM in each case. The TGI with SR leukemia, in the experiment on U251 CNS, in the experiment with HOP-92 NSCLC, in the experiment on COLO 205 colon, in the experiment with NCI-H460 lung and in the experiment on MALME-3M melanoma was above 100 µM throughout. For the same compound, the TGI in the experiment on MDA-N, with OVCAR-4 ovarian and in the experiment on A498 renal was above 100 µM throughout.
Regarding `CCOP(=O)(OCC)C(Nc1ccc(Br)cc1)c1cccc([N+](=O)[O-])c1` (stereo not drawn), the TGI (as a rule, the concentration at which net growth stops) in the experiment with OVCAR-3 ovarian came to 35.6 µM; in the experiment on CAKI-1 renal, 49.7 µM; in the experiment on SK-OV-3 ovarian it was 41.5 µM; in the experiment with 786-0 renal, 44.8 µM; with SF-539 CNS, 45.6 µM; in the experiment on HCT-116 colon, 25.6 µM. Further, the TGI in the experiment on MOLT-4 leukemia stood at 47.8 µM; in the experiment with SR leukemia it was 56.2 µM; with U251 CNS, 36.1 µM; in the experiment on HOP-92 NSCLC it was 42.2 µM; in the experiment with COLO 205 colon, 26 µM; in the experiment with NCI-H460 lung, 29.3 µM. In addition, the TGI is 37.9 µM in the experiment with MALME-3M melanoma, 37.2 µM with MDA-N, above 100 µM with OVCAR-4 ovarian and 31.1 µM in the experiment on A498 renal.
With `COc1cc(-c2cc(-c3ccccc3)nc(-c3c(OC)ccc4c(C)cc(=O)oc34)c2)cc(OC)c1OC`, the TGI in the experiment on OVCAR-3 ovarian, in the experiment with CAKI-1 renal, with SK-OV-3 ovarian, in the experiment with 786-0 renal, in the experiment on SF-539 CNS and in the experiment on HCT-116 colon was above 100 µM in each case. For the same compound, the TGI in the experiment with MOLT-4 leukemia, with SR leukemia, with U251 CNS, in the experiment on HOP-92 NSCLC, with COLO 205 colon and with NCI-H460 lung was above 100 µM throughout. Further, the TGI in the experiment on MALME-3M melanoma, with MDA-N, in the experiment with OVCAR-4 ovarian and with A498 renal was above 100 µM throughout.
For the compound `Brc1cc(CCOC2CCCCO2)c(-c2sccc2CCOC2CCCCO2)s1` (stereo not drawn), the concentration for total growth inhibition (TGI) in the experiment with OVCAR-3 ovarian, in the experiment with CAKI-1 renal, with SK-OV-3 ovarian, in the experiment with 786-0 renal, in the experiment on SF-539 CNS and with HCT-116 colon was above 100 µM throughout. Moreover, the concentration for total growth inhibition (TGI) with MOLT-4 leukemia is above 61.3 µM; with SR leukemia it was 49.1 µM; with U251 CNS, above 100 µM; in the experiment with HOP-92 NSCLC it was above 100 µM; in the experiment with COLO 205 colon, above 100 µM; in the experiment on NCI-H460 lung it was above 100 µM. Also, the TGI with MALME-3M melanoma is 87.7 µM; in the experiment on MDA-N, above 100 µM; in the experiment on OVCAR-4 ovarian, above 100 µM; in the experiment with A498 renal, above 100 µM.
For the compound `Cc1cn(C2CC(O)C(COC(=O)NCCC(F)(F)C(F)(F)C(F)(F)C(F)(F)F)O2)c(=O)[nH]c1=O` (stereo not drawn), the TGI in the experiment on OVCAR-3 ovarian, with CAKI-1 renal, in the experiment with SK-OV-3 ovarian, with 786-0 renal, in the experiment on SF-539 CNS and with HCT-116 colon was above 100 µM throughout. In addition, the TGI in the experiment on MOLT-4 leukemia, in the experiment on SR leukemia, in the experiment on U251 CNS, in the experiment with HOP-92 NSCLC, in the experiment with COLO 205 colon and in the experiment with NCI-H460 lung was above 100 µM each time. The TGI in the experiment on MALME-3M melanoma, with MDA-N, with OVCAR-4 ovarian and with A498 renal was above 100 µM in each case.
For the compound `Cc1cccc(CP(Cc2cccc(C)c2)CC2(Cp3c4ccccc4c4ccccc43)COC2)c1`, the TGI with OVCAR-3 ovarian is above 100 µM; with CAKI-1 renal, above 76.5 µM; in the experiment on SK-OV-3 ovarian, above 100 µM; in the experiment with 786-0 renal, above 31.6 µM; with SF-539 CNS it was above 100 µM; in the experiment with HCT-116 colon, above 100 µM. For the same compound, the TGI with MOLT-4 leukemia is 37.8 µM; in the experiment with SR leukemia, above 94.4 µM; in the experiment on U251 CNS, above 100 µM; in the experiment with HOP-92 NSCLC it was above 100 µM; in the experiment with COLO 205 colon it was 2.96 µM; in the experiment on NCI-H460 lung it was above 100 µM. Besides, the TGI is above 83.3 µM in the experiment on MALME-3M melanoma, above 100 µM in the experiment with MDA-N, above 100 µM in the experiment with OVCAR-4 ovarian and above 100 µM in the experiment on A498 renal.
In the case of `Cc1cccc(N(C(=O)Nc2ccc(Cl)c(Cl)c2)C2=NCC(C)S2)c1` (stereo not drawn), the TGI with OVCAR-3 ovarian, in the experiment with CAKI-1 renal, with SK-OV-3 ovarian, with 786-0 renal, in the experiment with SF-539 CNS and in the experiment with HCT-116 colon was above 100 µM throughout. In addition, the TGI in the experiment with MOLT-4 leukemia, with SR leukemia, in the experiment with U251 CNS, with HOP-92 NSCLC, in the experiment on COLO 205 colon and in the experiment on NCI-H460 lung was above 100 µM each time. Also, the TGI in the experiment with MALME-3M melanoma, with MDA-N, in the experiment with OVCAR-4 ovarian and in the experiment on A498 renal was above 100 µM each time.
`Clc1cc(Cl)cc(C=NC23CC4CC(CC(C4)C2)C3)c1`: the TGI in the experiment with OVCAR-3 ovarian, in the experiment on CAKI-1 renal, in the experiment on SK-OV-3 ovarian, in the experiment on 786-0 renal, with SF-539 CNS and with HCT-116 colon was above 10 µM throughout. The TGI in the experiment with MOLT-4 leukemia, in the experiment with SR leukemia, in the experiment on U251 CNS, with HOP-92 NSCLC, in the experiment with COLO 205 colon and with NCI-H460 lung was above 10 µM each time. Besides, the TGI with MALME-3M melanoma, in the experiment with MDA-N, in the experiment with OVCAR-4 ovarian and in the experiment on A498 renal was above 10 µM throughout.
For the compound `COC(=O)C1CN=CN1CCc1ccccc1` (stereo not drawn), the TGI in the experiment with OVCAR-3 ovarian, with CAKI-1 renal, with SK-OV-3 ovarian, in the experiment with 786-0 renal, in the experiment on SF-539 CNS and in the experiment with HCT-116 colon was above 100 µM throughout. In addition, the TGI in the experiment with MOLT-4 leukemia, with SR leukemia, in the experiment with U251 CNS, with HOP-92 NSCLC, in the experiment with COLO 205 colon and in the experiment with NCI-H460 lung was above 100 µM throughout. In addition, the TGI in the experiment with MALME-3M melanoma, in the experiment with MDA-N, in the experiment on OVCAR-4 ovarian and with A498 renal was above 100 µM in each case.

These data come from PubChem BioAssay (NCI).
